Results: patent US8993591B2, “1,2,4-triazolo[4,3-a] pyridine derivatives and their use as positive allosteric modulators of MGLUR2 receptors” (Janssen Pharmaceuticals, Inc., priority 2010, dated 2015)
Structures can show the parent of a compound that is named as a salt.

Biological target: T1, human mGluR2 receptor (Homo sapiens, UniProt Q14416)
T1 construct: expressed in transfected cells; host or cells: CHO cells (membranes)
Test: [35S]GTPγS binding assay, mGluR2 positive allosteric modulation (PAM)
Format: biochemical
Conditions: membranes from CHO cells transfected with human mGluR2, in presence of glutamate at EC20; for EC50: -log EC50 with EC50 in M, read-out: GTPγS - hmGluR2 PAM pEC50 (converted); for GTPγS - hmGluR2 PAM Emax / Emax: maximal % effect relative to the control glutamate response; for Emax: read-out: GTPγS - hmGluR2 PAM Emax
Protocol: The [^35S]GTPγS binding assay is a functional membrane-based assay used to study G-protein coupled receptor (GPCR) function whereby incorporation of a non-hydrolysable form of GTP, [^35S]GTPγS (guanosine 5′-triphosphate, labelled with […] ^35S), is measured. The G-protein α subunit catalyzes the exchange of guanosine 5′-diphosphate (GDP) by guanosine triphosphate (GTP) and on activation of the GPCR by an agonist, [^35S]GTPγS, becomes incorporated and cannot be cleaved to continue the exchange cycle (Harper (1998) Current Protocols in Pharmacology 2.6.1-10, John Wiley & Sons, Inc.). […] Here we describe the use of the [^35S]GTPγS binding assay using membranes from cells transfected with the human mGluR2 receptor and adapted from Schaffhauser et al. ((2003) Molecular Pharmacology 4:798-810) for the detection of the positive allosteric modulation (PAM) properties of the compounds of this invention.
CHO-cells were cultured to pre-confluence and stimulated with 5 mM butyrate for 24 h. Cells were then collected by scraping in PBS and cell suspension was centrifuged (10 min at 4000 RPM in benchtop centrifuge). Supernatant was discarded and pellet gently resuspended in 50 mM Tris-HCl, pH 7.4 by mixing with a vortex and pipetting up and down. The suspension was centrifuged at 16,000 RPM (Sorvall RC-5C plus rotor SS-34) for 10 minutes and the supernatant discarded. The pellet was homogenized in 5 mM Tris-HCl, pH 7.4 using an ultra-turrax homogenizer and centrifuged again (18,000 RPM, 20 min, 4° C.). The final pellet was resuspended in 50 mM Tris-HCl, pH 7.4 and stored at −80° C. in appropriate aliquots before use. Protein concentration was determined by the Bradford method (Bio-Rad, USA) with bovine serum albumin as standard.
Measurement of mGluR2 positive allosteric modulatory activity of test compounds was performed as follows. Test compounds and glutamate were diluted in assay buffer containing 10 mM HEPES acid, 10 mM HEPES salt, pH 7.4, 100 mM NaCl, 3 mM MgCl2 and 10 μM GDP. Human mGlu2 receptor-containing membranes were thawed on ice and diluted in assay buffer supplemented with 14 μg/ml saponin. Membranes were pre-incubated with compound alone or together with a predefined (˜EC20) concentration of glutamate (PAM assay) for 30 min at 30° C. After addition of [^35S]GTPγS (f.c. 0.1 nM), assay mixtures were shaken briefly and further incubated to allow [^35S]GTPγS incorporation on activation (30 minutes, 30° C.). Final assay mixtures contained 7 μg of membrane protein in 10 mM HEPES acid, 10 mM HEPES salt, pH 7.4, 100 mM NaCl, 3 mM MgCl2, 10 μM GDP and 10 μg/ml saponin. Total reaction volume was 200 μl. Reactions were terminated by rapid filtration through Unifilter-96 GF/B plates (Perkin Elmer, Mass., USA) using a 96-well filtermate universal harvester. Filters were washed 6 times with ice-cold 10 mM NaH2PO4/10 mM Na2HPO4, pH 7.4. Filters were then air-dried, and 40 μl of liquid scintillation cocktail (Microscint-O) was added to each well. Membrane-bound radioactivity was counted in a Microplate Scintillation and Luminescence Counter from Perkin Elmer.
The concentration-response curves of representative compounds of the present invention-obtained in the presence of EC20 of mGluR2 agonist glutamate to determine positive allosteric modulation (PAM)-were generated using the Lexis software interface (developed at J&J).

T1 sequence (Q14416 19-872): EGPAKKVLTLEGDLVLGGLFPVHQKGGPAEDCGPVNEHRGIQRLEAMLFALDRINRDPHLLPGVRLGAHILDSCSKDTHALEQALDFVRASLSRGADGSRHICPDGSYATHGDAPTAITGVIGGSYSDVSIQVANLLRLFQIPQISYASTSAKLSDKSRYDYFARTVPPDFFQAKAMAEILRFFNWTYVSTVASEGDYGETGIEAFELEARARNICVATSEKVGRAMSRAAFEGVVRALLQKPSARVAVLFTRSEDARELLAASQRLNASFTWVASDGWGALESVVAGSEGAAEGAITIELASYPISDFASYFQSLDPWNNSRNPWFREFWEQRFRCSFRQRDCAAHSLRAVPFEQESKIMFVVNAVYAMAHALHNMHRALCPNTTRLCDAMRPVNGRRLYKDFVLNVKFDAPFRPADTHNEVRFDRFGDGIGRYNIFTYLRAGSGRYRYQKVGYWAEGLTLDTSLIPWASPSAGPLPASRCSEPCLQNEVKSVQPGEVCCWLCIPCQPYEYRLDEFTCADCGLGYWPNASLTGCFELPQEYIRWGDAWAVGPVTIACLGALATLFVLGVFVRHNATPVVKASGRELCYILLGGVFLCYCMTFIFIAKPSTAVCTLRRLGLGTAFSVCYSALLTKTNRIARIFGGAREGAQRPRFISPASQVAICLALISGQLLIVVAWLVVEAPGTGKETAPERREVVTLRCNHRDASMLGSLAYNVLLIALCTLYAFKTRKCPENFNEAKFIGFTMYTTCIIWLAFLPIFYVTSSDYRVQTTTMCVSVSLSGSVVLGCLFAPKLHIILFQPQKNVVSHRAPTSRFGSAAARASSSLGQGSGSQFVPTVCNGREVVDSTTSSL

SMILES | EC50 | GTPγS - hmGluR2 PAM Emax | Emax
Fc1ccc(C2CN(Cc3ccn4c(CC5CC5)nnc4c3C(F)(F)F)CCO2)c(F)c1 (single isomer, unassigned) [Compound 18, 3-(Cyclopropylmethyl)-7-{[(2*S)-2-(2,4-difluorophenyl)morpholin-4-yl]methyl}-8-(trifluoromethyl)[1,2,4]triazolo[4,3-a]pyridine] | 51.3 nM | 242% | –
Fc1ccc(N2CCN(Cc3ccn4c(CC5CC5)nnc4c3C(F)(F)F)C3CC32)c(F)c1 (racemic) [Compound 12, 2-[[3-(Cyclopropylmethyl)-8-(trifluoromethyl)-1,2,4-triazolo[4,3-a]pyridin-7-yl]methyl]-5-(2,4-difluorophenyl)-2,5-diazabicyclo[4.1.0]heptane (cis)] | 12.6 nM | – | 277%
Cc1nnc2c(C(F)(F)F)c(CN3CCCC(C)(c4ccccc4)C3)ccn12 (single isomer, unassigned) [Compound 11, 3-Methyl-7-[(3-methyl-3-phenyl-1-piperidinyl)methyl]-8-(trifluoromethyl)-1,2,4-triazolo[4,3-a]pyridine (*R)] | 53.7 nM | – | 268%
Fc1ccc(C2CN(Cc3ccn4c(CC5CC5)nnc4c3C(F)(F)F)CCO2)c(F)c1 (single isomer, unassigned) [Compound 17, 3-(Cyclopropylmethyl)-7-{[(2*R)-2-(2,4-difluorophenyl)morpholin-4-yl]methyl}-8-(trifluoromethyl)[1,2,4]triazolo[4,3-a]pyridine] | 977 nM | – | 259%
CC1(c2ccccc2)CN(Cc2ccn3c(CC4CC4)nnc3c2C(F)(F)F)CCN1 (single isomer, unassigned) [Compound 3b, 3-(cyclopropylmethyl)-7-[(3-methyl-3-phenyl-1-piperazinyl)methyl]-8-(trifluoromethyl)-1,2,4-triazolo[4,3-a]pyridine (*S) hydrochloride hydrate (.2.4HCl.2.7H2O)] | 37.2 nM | – | 292%
FC(F)(F)c1c(CN2CCO[C@H](c3ccccc3)C2)ccn2c(CC3CC3)nnc12 [Compound 2, 3-(Cyclopropylmethyl)-7-[[(2R)-2-phenyl-4-morpholinyl]methyl]-8-(trifluoromethyl)-1,2,4-triazolo[4,3-a]pyridine] | 871 nM | – | 267%
FC(F)(F)c1c(CN2CCO[C@@H](c3ccccc3)C2)ccn2c(CC3CC3)nnc12 [Compound 4, 3-(Cyclopropylmethyl)-7-[[(2S)-2-phenyl-4-morpholinyl]methyl]-8-(trifluoromethyl)-1,2,4-triazolo[4,3-c]pyridine] | 324 nM | – | 294%
CC1(c2ccccc2)CCN(Cc2ccn3c(CC4CC4)nnc3c2C(F)(F)F)C1 (single isomer, unassigned) [Compound 13, 3-(cyclopropylmethyl)-7-[(3-methyl-3-phenyl-1-pyrrolidinyl)methyl]-8-(trifluoromethyl)-1,2,4-triazolo[4,3-a]pyridine (*R)] | 12.6 nM | 248% | –
CC1(c2ccccc2)CN(Cc2ccn3c(CC4CC4)nnc3c2C(F)(F)F)CCN1 (single isomer, unassigned) [Compound 3a, 3-(Cyclopropylmethyl)-7-[(3-methyl-3-phenyl-1-piperazinyl)methyl]-8-(trifluoromethyl)-1,2,4-triazolo[4,3-a]pyridine (*R) hydrochloride hydrate (.2HCl.2.5H2O)] | – | – | 271%
CC1(c2ccccc2)CCN(Cc2ccn3c(CC4CC4)nnc3c2C(F)(F)F)C1 (single isomer, unassigned) [Compound 14, 3-(cyclopropylmethyl)-7-[(3-methyl-3-phenyl-1-pyrrolidinyl)methyl]-8-(trifluoromethyl)-1,2,4-triazolo[4,3-a]pyridine (*S)] | 15.1 nM | 286% | –
Cc1nnc2c(C(F)(F)F)c(CN3CCCC(C)(c4ccccc4)C3)ccn12 (single isomer, unassigned) [Compound 10, 3-Methyl-7-[(3-methyl-3-phenyl-1-piperidinyl)methyl]-8-(trifluoromethyl)-1,2,4-triazolo[4,3-a]pyridine (*S)] | – | – | 193%

Next, values leading:

EC50 | GTPγS - hmGluR2 PAM Emax | Emax | SMILES
955 nM | 278% | – | FC(F)(F)c1c(CN2CCNC(c3ccccc3)C2)ccn2c(CC3CC3)nnc12 (single isomer, unassigned) [Compound 5b, 3-(cyclopropylmethyl)-7-[(3-phenyl-1-piperazinyl)methyl]-8-(trifluoromethyl)-1,2,4-triazolo[4,3-a]pyridine (*S)]
263 nM | – | 198% | CN1CCN(Cc2ccn3c(CC4CC4)nnc3c2C(F)(F)F)CC1c1ccccc1 (single isomer, unassigned) [Compound 7b, 3-(cyclopropylmethyl)-7-[(4-methyl-3-phenyl-1-piperazinyl)methyl]-8-(trifluoromethyl)-1,2,4-triazolo[4,3-a]pyridine (*S)]
631 nM | 294% | – | Fc1ccccc1C1CN(Cc2ccn3c(CC4CC4)nnc3c2C(F)(F)F)CCN1 (single isomer, unassigned) [Compound 6b, 3-(cyclopropylmethyl)-7-[[3-(2-fluorophenyl)-1-piperazinyl]methyl]-8-(trifluoromethyl)-1,2,4-triazolo[4,3-a]pyridine (*S)]
676 nM | 273% | – | CC1(c2ccccc2)CN(Cc2ccn3c(CC4CC4)nnc3c2C(F)(F)F)CCO1 (single isomer, unassigned) [Compound 8a, 3-(Cyclopropylmethyl)-7-[(2-methyl-2-phenyl-4-morpholinyl)methyl]-8-(trifluoromethyl)-1,2,4-triazolo[4,3-a]pyridine (*R) hydrochloride hydrate (.1.1HCl.1.1H2O)]
468 nM | 279% | – | Fc1ccc(C2CN(Cc3ccn4c(CC5CC5)nnc4c3C(F)(F)F)CCN2)c(F)c1 (single isomer, unassigned) [Compound 19b, 3-(Cyclopropylmethyl)-7-{[(3*S)-3-(2,4-difluorophenyl)piperazin-1-yl]methyl}-8-(trifluoromethyl)[1,2,4]triazolo[4,3-a]pyridine]
447 nM | 208% | – | Fc1ccccc1C1CN(Cc2ccn3c(CC4CC4)nnc3c2C(F)(F)F)CCN1 (single isomer, unassigned) [Compound 6a, 3-(cyclopropylmethyl)-7-[[3-(2-fluorophenyl)-1-piperazinyl]methyl]-8-(trifluoromethyl)-1,2,4-triazolo[4,3-a]pyridine (*R)]
8.32 nM | 243% | – | CC1(c2ccccc2)CN(Cc2ccn3c(CC4CC4)nnc3c2C(F)(F)F)CCO1 (single isomer, unassigned) [Compound 8b, 3-(cyclopropylmethyl)-7-[(2-methyl-2-phenyl-4-morpholinyl)methyl]-8-(trifluoromethyl)-1,2,4-triazolo[4,3-a]pyridine (*S) hydrochloride hydrate (.1.3HCl.1.6H2O)]
2240 nM | – | 270% | FC(F)(F)c1c(CN2CCNC(c3ccccc3)C2)ccn2c(CC3CC3)nnc12 (single isomer, unassigned) [Compound 5a, 3-(Cyclopropylmethyl)-7-[(3-phenyl-1-piperazinyl)methyl]-8-(trifluoromethyl)-1,2,4-triazolo[4,3-a]pyridine(*R)]
